Measured values taken from PMC5218480 (PLoS ONE, 2017).

System: MV-4-11 cells
Assay: Gene expression microarray analysis (Affymetrix PrimeView) and GSEA
Format: cell-based, human
Parameters: RFU PODN (11730768_x_at) / Fold change /veh PODN (11730768_x_at) / RFU LINC00158 (11744669_a_at) / Fold change /veh LINC00158 (11744669_a_at) / RFU DUSP10 (11751237_a_at) / Fold change /veh DUSP10 (11751237_a_at) / RFU ID3 (11757404_x_at) / Fold change /veh ID3 (11757404_x_at) / RFU PLEKHG5 (11737974_s_at) / Fold change /veh PLEKHG5 (11737974_s_at) / RFU LRRC4B (11730491_at) / Fold change /veh LRRC4B (11730491_at) / RFU GIMAP4 (11747438_a_at) / Fold change /veh GIMAP4 (11747438_a_at) / RFU KRT8 (11758183_x_at) / Fold change /veh KRT8 (11758183_x_at) / RFU CNN1 (11734310_a_at) / Fold change /veh CNN1 (11734310_a_at) / RFU VPS37D (11726825_at) / Fold change /veh VPS37D (11726825_at) / RFU C10orf10 (11716522_x_at) / Fold change /veh C10orf10 (11716522_x_at) / RFU KIR2DL2 /// KIR2DL4 /// KIR2DL5A /// KIR2DL5B /// KIR2DS1 /// KIR2DS2 /// KIR2DS3 /// KIR2DS4 /// KIR3DL3 /// KIR3DL3 /// KIR3DS1 (11738374_at) / Fold change /veh KIR2DL2 /// KIR2DL4 /// KIR2DL5A /// KIR2DL5B /// KIR2DS1 /// KIR2DS2 /// KIR2DS3 /// KIR2DS4 /// KIR3DL3 /// KIR3DL3 /// KIR3DS1 (11738374_at) / RFU C1QL1 (11718748_at) / Fold change /veh C1QL1 (11718748_at) / RFU TMPRSS4 (11747572_a_at) / Fold change /veh TMPRSS4 (11747572_a_at) / RFU HAMP (11756126_x_at) / Fold change /veh HAMP (11756126_x_at) / RFU RNFT2 (11725882_a_at) / Fold change /veh RNFT2 (11725882_a_at) / RFU NR4A2 (11747474_a_at) / Fold change /veh NR4A2 (11747474_a_at) / RFU ABCC12 (11746883_a_at) / Fold change /veh ABCC12 (11746883_a_at) / RFU TMEM136 (11760407_x_at) / Fold change /veh TMEM136 (11760407_x_at) / RFU CLDN22 /// WWC2 (11732394_at) / Fold change /veh CLDN22 /// WWC2 (11732394_at) / RFU HLA-DPB1 (11760878_x_at) / Fold change /veh HLA-DPB1 (11760878_x_at) / RFU SPINT1 (11716480_a_at) / Fold change /veh SPINT1 (11716480_a_at) / RFU GAP43 (11754022_s_at) / Fold change /veh GAP43 (11754022_s_at) / RFU A4GNT (11735810_at) / Fold change /veh A4GNT (11735810_at) / RFU PRB3 (11715151_x_at) / Fold change /veh PRB3 (11715151_x_at) / RFU TUBB4B (11761932_at) / Fold change /veh TUBB4B (11761932_at) / RFU CAPN14 (11732068_a_at) / Fold change /veh CAPN14 (11732068_a_at) / RFU TMCC2 (11721928_a_at) / Fold change /veh TMCC2 (11721928_a_at) / RFU IRGQ (11745062_a_at) / Fold change /veh IRGQ (11745062_a_at) / RFU FAM174B (11720279_a_at) / Fold change /veh FAM174B (11720279_a_at) / RFU TMPRSS4 (11748680_a_at) / Fold change /veh TMPRSS4 (11748680_a_at) / RFU FAM212B (11763350_a_at) / Fold change /veh FAM212B (11763350_a_at) / RFU PLEKHG5 (11743358_a_at) / Fold change /veh PLEKHG5 (11743358_a_at) / RFU ZSCAN30 (11745921_a_at) / Fold change /veh ZSCAN30 (11745921_a_at) / RFU CMKLR1 (11741424_a_at) / Fold change /veh CMKLR1 (11741424_a_at) / RFU LOC101060620 /// MAPK8IP1 (11723275_at) / Fold change /veh LOC101060620 /// MAPK8IP1 (11723275_at) / RFU SPTSSB (11747773_x_at) / Fold change /veh SPTSSB (11747773_x_at) / RFU PRSS12 (11739890_at) / Fold change /veh PRSS12 (11739890_at) / RFU BIN1 (11741810_x_at) / Fold change /veh BIN1 (11741810_x_at) / RFU WNT11 (11732464_a_at) / Fold change /veh WNT11 (11732464_a_at) / RFU C10orf10 (11716521_a_at) / Fold change /veh C10orf10 (11716521_a_at) / RFU C5orf56 (11738089_at) / Fold change /veh C5orf56 (11738089_at) / RFU CYB561 (11721691_x_at) / Fold change /veh CYB561 (11721691_x_at) / RFU ANKRD19P (11752326_a_at) / Fold change /veh ANKRD19P (11752326_a_at) / RFU OR2T12 /// OR2T33 /// OR2T8 (11738714_s_at) / Fold change /veh OR2T12 /// OR2T33 /// OR2T8 (11738714_s_at) / RFU VCAN (11748164_a_at) / Fold change /veh VCAN (11748164_a_at) / RFU JSRP1 (11732532_at) / Fold change /veh JSRP1 (11732532_at) / RFU KRTAP10-11 (11738290_x_at) / Fold change /veh KRTAP10-11 (11738290_x_at) / RFU MYO3A (11730013_a_at) / Fold change /veh MYO3A (11730013_a_at) / RFU EBF3 (11725865_a_at) / Fold change /veh EBF3 (11725865_a_at) / RFU CAMK2N1 (11719241_x_at) / Fold change /veh CAMK2N1 (11719241_x_at) / RFU C5orf56 (11738088_a_at) / Fold change /veh C5orf56 (11738088_a_at) / RFU OLFML3 (11715873_a_at) / Fold change /veh OLFML3 (11715873_a_at) / RFU LOC100653217 /// NTM (11731650_a_at) / Fold change /veh LOC100653217 /// NTM (11731650_a_at) / RFU MAPK11 (11762145_a_at) / Fold change /veh MAPK11 (11762145_a_at) / RFU FIZ1 (11724087_x_at) / Fold change /veh FIZ1 (11724087_x_at) / RFU OASL (11726364_x_at) / Fold change /veh OASL (11726364_x_at) / RFU SOX15 (11748057_x_at) / Fold change /veh SOX15 (11748057_x_at) / RFU CD79A (11719716_a_at) / Fold change /veh CD79A (11719716_a_at) / RFU HIST1H1D (11736915_at) / Fold change /veh HIST1H1D (11736915_at) / RFU CASKIN2 (11723855_a_at) / Fold change /veh CASKIN2 (11723855_a_at) / RFU LOC730098 (11760151_x_at) / Fold change /veh LOC730098 (11760151_x_at) / RFU OR4N2 (11742367_at) / Fold change /veh OR4N2 (11742367_at) / RFU PRRT2 (11749266_a_at) / Fold change /veh PRRT2 (11749266_a_at) / RFU SNX32 (11753110_a_at) / Fold change /veh SNX32 (11753110_a_at) / RFU CDHR5 (11726645_a_at) / Fold change /veh CDHR5 (11726645_a_at) / RFU RCAN1 (11760418_a_at) / Fold change /veh RCAN1 (11760418_a_at) / RFU FAM167A (11723789_a_at) / Fold change /veh FAM167A (11723789_a_at) / RFU FAM26E (11764081_at) / Fold change /veh FAM26E (11764081_at) / RFU ISYNA1 (11749810_s_at) / Fold change /veh ISYNA1 (11749810_s_at) / RFU ACY1 (11761880_at) / Fold change /veh ACY1 (11761880_at) / RFU 11764098_at / Fold change /veh 11764098_at / RFU SAMD14 (11745864_x_at) / Fold change /veh SAMD14 (11745864_x_at) / RFU NPB (11741838_a_at) / Fold change /veh NPB (11741838_a_at) / RFU TMPRSS6 (11731388_a_at) / Fold change /veh TMPRSS6 (11731388_a_at) / RFU KRTAP10-2 (11738614_at) / Fold change /veh KRTAP10-2 (11738614_at) / RFU ARHGAP8 /// PRR5-ARHGAP8 (11727945_x_at) / Fold change /veh ARHGAP8 /// PRR5-ARHGAP8 (11727945_x_at) / RFU KRTAP5-7 /// NADSYN1 (11734609_at) / Fold change /veh KRTAP5-7 /// NADSYN1 (11734609_at) / RFU RASL12 (11751679_a_at) / Fold change /veh RASL12 (11751679_a_at) / RFU CDKN2B (11736163_a_at) / Fold change /veh CDKN2B (11736163_a_at) / RFU PRF1 (11729649_at) / Fold change /veh PRF1 (11729649_at) / RFU, ZNF638 /// ZNF638-IT1 / Fold change vs veh, ZNF638 /// ZNF638-IT1 / RFU, PANK3 / Fold change vs veh, PANK3 / RFU, SH3YL1 / Fold change vs veh, SH3YL1 / RFU, ZEB2 / Fold change vs veh, ZEB2 / RFU, NRIP1 / Fold change vs veh, NRIP1 / RFU, PTTG1IP / Fold change vs veh, PTTG1IP / RFU, CAPN2 / Fold change vs veh, CAPN2 / RFU, MED14 / Fold change vs veh, MED14 / RFU, SNORA58 / Fold change vs veh, SNORA58 / RFU, C1orf63 / Fold change vs veh, C1orf63 / RFU, LRRFIP1 / Fold change vs veh, LRRFIP1 / RFU, NDUFAF7 / Fold change vs veh, NDUFAF7 / RFU, SLC12A2 / Fold change vs veh, SLC12A2 / RFU, IBTK / Fold change vs veh, IBTK / RFU, ESF1 / Fold change vs veh, ESF1 / Fold change vs veh, TMEM50B / RFU, TAOK1 / Fold change vs veh, TAOK1 / RFU, ACBD3 / Fold change vs veh, ACBD3 / RFU, TMA16 / Fold change vs veh, TMA16 / RFU, RWDD3 / Fold change vs veh, RWDD3 / RFU, BCAT1 / Fold change vs veh, BCAT1 / RFU, EDEM3 / Fold change vs veh, EDEM3 / RFU, TMEM33 / Fold change vs veh, TMEM33 / RFU, WDR75 / Fold change vs veh, WDR75 / RFU, AHCTF1 / Fold change vs veh, AHCTF1 / RFU, TFRC / Fold change vs veh, TFRC / RFU, ZDHHC17 / Fold change vs veh, ZDHHC17 / RFU, NOM1 / Fold change vs veh, NOM1 / RFU, ARL8B / Fold change vs veh, ARL8B / RFU, ZBTB11 / Fold change vs veh, ZBTB11 / RFU, TAMM41 / Fold change vs veh, TAMM41 / RFU, KIAA1704 /// LOC100996395 / Fold change vs veh, KIAA1704 /// LOC100996395 / RFU, ING1 / Fold change vs veh, ING1 / RFU, TRMT61B / Fold change vs veh, TRMT61B / RFU, FUBP3 / Fold change vs veh, FUBP3 / RFU, TP53 / Fold change vs veh, TP53 / RFU, TNKS2 / Fold change vs veh, TNKS2 / RFU, ZFP14 / Fold change vs veh, ZFP14 / RFU, ACTR2 / Fold change vs veh, ACTR2 / RFU, PPP3R1 / Fold change vs veh, PPP3R1 / RFU, PIK3R1 / Fold change vs veh, PIK3R1 / RFU, HNRNPA1 / Fold change vs veh, HNRNPA1 / RFU, RNF170 / Fold change vs veh, RNF170 / RFU, ZNF28 / Fold change vs veh, ZNF28 / RFU, RNGTT / Fold change vs veh, RNGTT / RFU, OGT / Fold change vs veh, OGT / RFU, BRD1 / Fold change vs veh, BRD1 / RFU, MARS / Fold change vs veh, MARS / RFU, ZNF655 / Fold change vs veh, ZNF655 / RFU, FAHD1 / Fold change vs veh, FAHD1 / RFU, BDP1 / Fold change vs veh, BDP1 / RFU, LRRCC1 / Fold change vs veh, LRRCC1 / RFU, ARID1A / Fold change vs veh, ARID1A / RFU, ZNF146 / Fold change vs veh, ZNF146 / RFU, ZNF330 / Fold change vs veh, ZNF330 / RFU, GPN3 / Fold change vs veh, GPN3 / RFU, C9orf123 / Fold change vs veh, C9orf123 / RFU, N4BP2L2 / Fold change vs veh, N4BP2L2 / RFU, ARFIP1 / Fold change vs veh, ARFIP1 / RFU, FAM179B / Fold change vs veh, FAM179B / RFU, BCL10 / Fold change vs veh, BCL10 / RFU, UHRF1BP1L / Fold change vs veh, UHRF1BP1L / RFU, BET1 / Fold change vs veh, BET1 / RFU, CNOT2 / Fold change vs veh, CNOT2 / RFU, ZNF268 / Fold change vs veh, ZNF268 / Fold change vs veh, ZNF507 / RFU, DGCR2 / Fold change vs veh, DGCR2 / RFU, WDSUB1 / Fold change vs veh, WDSUB1 / Fold change vs veh, HSP90B1 /// MIR3652 / RFU, ADSS / Fold change vs veh, ADSS / RFU, GK / Fold change vs veh, GK / RFU, ZNF148 / Fold change vs veh, ZNF148 / RFU, TAF9 / Fold change vs veh, TAF9 / RFU, SLC1A5 / Fold change vs veh, SLC1A5 / RFU, SLMO2 / Fold change vs veh, SLMO2 / RFU, ABCC4 / Fold change vs veh, ABCC4 / RFU, LOC101060439 /// RAP1B / Fold change vs veh, LOC101060439 /// RAP1B / RFU, RFX7 / Fold change vs veh, RFX7 / RFU, GTPBP10 / Fold change vs veh, GTPBP10 / RFU, CNEP1R1 / Fold change vs veh, CNEP1R1 / RFU, BIVM-ERCC5 /// ERCC5 / Fold change vs veh, BIVM-ERCC5 /// ERCC5 / RFU, ILF3 / Fold change vs veh, ILF3 / RFU 11762660_at / Fold change /veh 11762660_at / RFU VCAN (11757783_s_at) / Fold change /veh VCAN (11757783_s_at) / RFU DDX43 (11728927_at) / Fold change /veh DDX43 (11728927_at) / RFU KRT8 (11758188_x_at) / Fold change /veh KRT8 (11758188_x_at) / RFU NKD1 (11759106_at) / Fold change /veh NKD1 (11759106_at) / RFU SRD5A1 (11742802_a_at) / Fold change /veh SRD5A1 (11742802_a_at) / RFU TPSAB1 /// TPSB2 (11721975_s_at) / Fold change /veh TPSAB1 /// TPSB2 (11721975_s_at) / RFU GSTM3 (11746129_a_at) / Fold change /veh GSTM3 (11746129_a_at) / RFU IL23R (11737362_x_at) / Fold change /veh IL23R (11737362_x_at) / RFU TMEM51 (11727254_a_at) / Fold change /veh TMEM51 (11727254_a_at) / RFU PIWIL2 (11732686_x_at) / Fold change /veh PIWIL2 (11732686_x_at) / RFU ORM1 (11744905_x_at) / Fold change /veh ORM1 (11744905_x_at) / RFU CCDC152 (11743942_at) / Fold change /veh CCDC152 (11743942_at) / RFU ECM1 (11717891_a_at) / Fold change /veh ECM1 (11717891_a_at) / RFU IL23R (11748794_a_at) / Fold change /veh IL23R (11748794_a_at) / RFU TNFAIP8L3 (11732012_x_at) / Fold change /veh TNFAIP8L3 (11732012_x_at) / RFU MBOAT4 (11741988_at) / Fold change /veh MBOAT4 (11741988_at) / RFU 11764193_at / Fold change /veh 11764193_at / RFU TMEM53 (11763286_at) / Fold change /veh TMEM53 (11763286_at) / RFU MAGEB2 (11727129_at) / Fold change /veh MAGEB2 (11727129_at) / RFU TMEM200A (11744735_a_at) / Fold change /veh TMEM200A (11744735_a_at) / RFU CCDC152 (11751479_a_at) / Fold change /veh CCDC152 (11751479_a_at) / RFU FAM211A (11726209_a_at) / Fold change /veh FAM211A (11726209_a_at) / RFU RGS16 (11746705_a_at) / Fold change /veh RGS16 (11746705_a_at) / RFU VCAN (11755009_s_at) / Fold change /veh VCAN (11755009_s_at) / RFU RHOB (11743442_s_at) / Fold change /veh RHOB (11743442_s_at) / RFU RGS16 (11720943_a_at) / Fold change /veh RGS16 (11720943_a_at) / RFU RGS16 (11720944_at) / Fold change /veh RGS16 (11720944_at) / RFU, VPS4B / Fold change vs veh, VPS4B / RFU, CREB1 / Fold change vs veh, CREB1 / RFU, DNAJC13 / Fold change vs veh, DNAJC13 / RFU, GNAQ / Fold change vs veh, GNAQ / RFU, CDK5R1 / Fold change vs veh, CDK5R1 / RFU, ZRANB3 / Fold change vs veh, ZRANB3 / RFU, CUL4A / Fold change vs veh, CUL4A / RFU, CCNY / Fold change vs veh, CCNY / RFU, UFL1 / Fold change vs veh, UFL1 / RFU, COG3 / Fold change vs veh, COG3 / RFU, DIAPH2 / Fold change vs veh, DIAPH2 / RFU, SKA2 / Fold change vs veh, SKA2 / RFU, AFF3 / Fold change vs veh, AFF3 / RFU, LMF1 / Fold change vs veh, LMF1 / RFU, IPO11 / Fold change vs veh, IPO11 / RFU, DFFB / Fold change vs veh, DFFB / RFU, FOXP1 / Fold change vs veh, FOXP1 / RFU, CARD8 / Fold change vs veh, CARD8 / RFU, STRN3 / Fold change vs veh, STRN3 / RFU, ADK / Fold change vs veh, ADK / RFU, RASSF2 / Fold change vs veh, RASSF2 / RFU, WIPF1 / Fold change vs veh, WIPF1 / RFU, LARP1B / Fold change vs veh, LARP1B / RFU, RASA1 / Fold change vs veh, RASA1 / RFU, RB1 / Fold change vs veh, RB1 / RFU, PPFIA1 / Fold change vs veh, PPFIA1 / RFU, MAT2A / Fold change vs veh, MAT2A / RFU, CCT5 / Fold change vs veh, CCT5 / RFU, WDR92 / Fold change vs veh, WDR92 / RFU, CUX1 / Fold change vs veh, CUX1 / RFU, TTC7A / Fold change vs veh, TTC7A / RFU, TMEM135 / Fold change vs veh, TMEM135 / RFU, DEPTOR / Fold change vs veh, DEPTOR / RFU, CPM / Fold change vs veh, CPM / RFU, DNAJB6 / Fold change vs veh, DNAJB6 / RFU, CACNA2D3 / Fold change vs veh, CACNA2D3 / RFU, DTX4 / Fold change vs veh, DTX4 / RFU, TFCP2 / Fold change vs veh, TFCP2 / RFU, GMCL1 /// GMCL1P1 / Fold change vs veh, GMCL1 /// GMCL1P1 / RFU, AEBP2 / Fold change vs veh, AEBP2 / RFU, SNHG1 /// SNORD22 /// SNORD25 /// SNORD26 /// SNORD27 /// SNORD28 /// SNORD29 /// SNORD31 / Fold change vs veh, SNHG1 /// SNORD22 /// SNORD25 /// SNORD26 /// SNORD27 /// SNORD28 /// SNORD29 /// SNORD31 / Fold change (Aza/veh), C12orf56 (ProbeSet 11735607_a_at) / Fold change (ACY-1035/veh), C12orf56 (ProbeSet 11735607_a_at) / Fold change (Aza/veh), FGFR1OP (ProbeSet 11751329_s_at) / Fold change (ACY-1035/veh), FGFR1OP (ProbeSet 11751329_s_at) / Fold change (Aza/veh), VPS36 (ProbeSet 11739960_a_at) / Fold change (ACY-1035/veh), VPS36 (ProbeSet 11739960_a_at) / RFU SYPL1 (11715823_x_at) / Fold change /veh SYPL1 (11715823_x_at) / RFU IGFBP7 (11715501_s_at) / Fold change /veh IGFBP7 (11715501_s_at) / RFU REEP3 (11722064_at) / Fold change /veh REEP3 (11722064_at) / RFU IGLL1 (11728026_x_at) / Fold change /veh IGLL1 (11728026_x_at): dose or concentration left out as unconfirmed
Conditions: ProbeSet 11732370_a_at; LIST D

Q: For `Nc1ncn([C@@H]2O[C@H](CO)[C@@H](O)[C@H]2O)c(=O)n1` [azacitidine], which “Fold change vs veh, CUX1” value is on record?
A: 0.72
